# Results taken from patent US6906205B2, “Spiro and dispiro 1,2,4-trioxolane antimalarials” (Medicines for Malaria Venture MMV, priority 2002, dated 2005).
# System: P. falciparum K1 strain (Thailand resistant to chloroquine)
# Assay: semiautomated microdilution assay, [3H]-hypoxanthine incorporation, K1 strain
# Assay type: cell-based, Plasmodium falciparum
# Settings: K1 strain, 72 h incubation
# Outline: (§1)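 Compounds were tested against intraerythrocytic parasites taken from asynchronous stock cultures, using semiautomated microdilution. IC50 values were estimated by logit regression analysis.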
row,SMILES,IC50 (ng/ml) K1 [ng/mL]
1,O=C1c2ccccc2C(=O)N1CC[C@H]1CC[C@]2(CC1)OOC1(O2)C2CC3CC(C2)CC1C3 (some centres unmarked) [OZ215],6.4
2,CC1(C)C2CCC1(CS(=O)(=O)N1CCC3(CC1)OOC1(O3)C3CC4CC(C3)CC1C4)C(=O)C2 (centres unmarked) [OZ91],1.4
3,CC(C)(C)NC(=O)N[C@H]1CC[C@]2(CC1)OOC1(O2)C2CC3CC(C2)CC1C3 (some centres unmarked) [OZ222],3.9
4,CCCCCCCCS(=O)(=O)N1CCC2(CC1)OOC1(O2)C2CC3CC(C2)CC1C3 (centres unmarked) [OZ115],11
5,CS(=O)(=O)C[C@H]1CC[C@]2(CC1)OO[C@]1(O2)C2CC3CC(C2)CC1C3 [OZ307],0.62
6,NCC1(c2ccccc2)CCC2(CC1)OOC1(O2)C2CC3CC(C2)CC1C3 (centres unmarked) [OZ117],2.1
7,C1CC1CNC1CCC2(CC1)OOC1(O2)C2CC3CC(C2)CC1C3 (centres unmarked) [OZ184],1.0

# System: P. falciparum NF54 strain (sensitive to standard antimalarials)
# Assay: semiautomated microdilution assay, [3H]-hypoxanthine incorporation, NF54 strain
# Assay type: cell-based, Plasmodium falciparum
# Settings: NF54 strain, 72 h incubation
# Outline: as §1
row,SMILES,IC50 (ng/ml) NF54 [ng/mL]
1,O=C1c2ccccc2C(=O)N1CC[C@H]1CC[C@]2(CC1)OOC1(O2)C2CC3CC(C2)CC1C3 (some centres unmarked) [OZ215],7.3
2,CC1(C)C2CCC1(CS(=O)(=O)N1CCC3(CC1)OOC1(O3)C3CC4CC(C3)CC1C4)C(=O)C2 (centres unmarked) [OZ91],0.42
3,CC(C)(C)NC(=O)N[C@H]1CC[C@]2(CC1)OOC1(O2)C2CC3CC(C2)CC1C3 (some centres unmarked) [OZ222],6.3
4,CCCCCCCCS(=O)(=O)N1CCC2(CC1)OOC1(O2)C2CC3CC(C2)CC1C3 (centres unmarked) [OZ115],6.9
5,CS(=O)(=O)C[C@H]1CC[C@]2(CC1)OO[C@]1(O2)C2CC3CC(C2)CC1C3 [OZ307],0.88
6,NCC1(c2ccccc2)CCC2(CC1)OOC1(O2)C2CC3CC(C2)CC1C3 (centres unmarked) [OZ117],1.2
7,C1CC1CNC1CCC2(CC1)OOC1(O2)C2CC3CC(C2)CC1C3 (centres unmarked) [OZ184],1.4

# System: ANKA strain of P. berghei
# Assay: single dose STI in vivo screen in infected mice
# Design: species or system Plasmodium berghei
# Settings: percent reduction in parasitemia day 3 post-infection; single 3 mg/kg po in SSV
# Outline: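 Groups of 3-5 Moro SPF or NMRI mice infected with the ANKA strain of P. berghei received a single dose of trioxolane on day one post-infection. The compound was given in 3% ethanol and 7% Tween 80 or in SSV (0.5% w/v CMC, 0.5% v/v benzyl alcohol, 0.4% v/v Tween 80, 0.9% w/v sodium chloride in water). Antimalarial activity was scored as percent reduction in parasitemia on day three and as survival time versus untreated controls. Survival to day 30 counted as cure.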
row,SMILES,Activity (%) 3 mg/kg SSV po [%]
1,CS(=O)(=O)C[C@H]1CC[C@]2(CC1)OO[C@]1(O2)C2CC3CC(C2)CC1C3 [OZ307],74

# Same assay, conditions: percent reduction in parasitemia day 3 post-infection; single 10 mg/kg po in 3% ethanol and 7% Tween 80; mice
row,SMILES,Activity (%) po [%]
1,O=C1c2ccccc2C(=O)N1CC[C@H]1CC[C@]2(CC1)OOC1(O2)C2CC3CC(C2)CC1C3 (some centres unmarked) [OZ215],96
2,CC1(C)C2CCC1(CS(=O)(=O)N1CCC3(CC1)OOC1(O3)C3CC4CC(C3)CC1C4)C(=O)C2 (centres unmarked) [OZ91],20
3,CC(C)(C)NC(=O)N[C@H]1CC[C@]2(CC1)OOC1(O2)C2CC3CC(C2)CC1C3 (some centres unmarked) [OZ222],87
4,CCCCCCCCS(=O)(=O)N1CCC2(CC1)OOC1(O2)C2CC3CC(C2)CC1C3 (centres unmarked) [OZ115],33
5,NCC1(c2ccccc2)CCC2(CC1)OOC1(O2)C2CC3CC(C2)CC1C3 (centres unmarked) [OZ117],95
6,C1CC1CNC1CCC2(CC1)OOC1(O2)C2CC3CC(C2)CC1C3 (centres unmarked) [OZ184],54

# Same assay, conditions: percent reduction in parasitemia day 3 post-infection; single 10 mg/kg po in SSV
row,SMILES,Activity (%) 10 mg/kg SSV po [%]
1,CS(=O)(=O)C[C@H]1CC[C@]2(CC1)OO[C@]1(O2)C2CC3CC(C2)CC1C3 [OZ307],98

# Same assay, conditions: percent reduction in parasitemia day 3 post-infection; single 10 mg/kg sc in 3% ethanol and 7% Tween 80; mice
row,SMILES,Activity (%) sc [%]
1,O=C1c2ccccc2C(=O)N1CC[C@H]1CC[C@]2(CC1)OOC1(O2)C2CC3CC(C2)CC1C3 (some centres unmarked) [OZ215],39
2,CC1(C)C2CCC1(CS(=O)(=O)N1CCC3(CC1)OOC1(O3)C3CC4CC(C3)CC1C4)C(=O)C2 (centres unmarked) [OZ91],85
3,CC(C)(C)NC(=O)N[C@H]1CC[C@]2(CC1)OOC1(O2)C2CC3CC(C2)CC1C3 (some centres unmarked) [OZ222],99.76
4,CCCCCCCCS(=O)(=O)N1CCC2(CC1)OOC1(O2)C2CC3CC(C2)CC1C3 (centres unmarked) [OZ115],97
5,NCC1(c2ccccc2)CCC2(CC1)OOC1(O2)C2CC3CC(C2)CC1C3 (centres unmarked) [OZ117],99.94
6,C1CC1CNC1CCC2(CC1)OOC1(O2)C2CC3CC(C2)CC1C3 (centres unmarked) [OZ184],97

# Same assay, conditions: percent reduction in parasitemia day 3 post-infection; single po dose in standard suspending vehicle (SSV); mice
row,SMILES,Activity (%) SSVpo [%]
1,O=C1c2ccccc2C(=O)N1CC[C@H]1CC[C@]2(CC1)OOC1(O2)C2CC3CC(C2)CC1C3 (some centres unmarked) [OZ215],25
2,CC1(C)C2CCC1(CS(=O)(=O)N1CCC3(CC1)OOC1(O3)C3CC4CC(C3)CC1C4)C(=O)C2 (centres unmarked) [OZ91],0
3,CC(C)(C)NC(=O)N[C@H]1CC[C@]2(CC1)OOC1(O2)C2CC3CC(C2)CC1C3 (some centres unmarked) [OZ222],75
4,CCCCCCCCS(=O)(=O)N1CCC2(CC1)OOC1(O2)C2CC3CC(C2)CC1C3 (centres unmarked) [OZ115],0
5,NCC1(c2ccccc2)CCC2(CC1)OOC1(O2)C2CC3CC(C2)CC1C3 (centres unmarked) [OZ117],96
6,C1CC1CNC1CCC2(CC1)OOC1(O2)C2CC3CC(C2)CC1C3 (centres unmarked) [OZ184],59

# Same assay, conditions: single 10 mg/kg po in 3% ethanol and 7% Tween 80; untreated control 5.6 ± 0.3
row,SMILES,Survival (days) po [days]
1,O=C1c2ccccc2C(=O)N1CC[C@H]1CC[C@]2(CC1)OOC1(O2)C2CC3CC(C2)CC1C3 (some centres unmarked) [OZ215],9.7
2,CC1(C)C2CCC1(CS(=O)(=O)N1CCC3(CC1)OOC1(O3)C3CC4CC(C3)CC1C4)C(=O)C2 (centres unmarked) [OZ91],5.7
3,CC(C)(C)NC(=O)N[C@H]1CC[C@]2(CC1)OOC1(O2)C2CC3CC(C2)CC1C3 (some centres unmarked) [OZ222],7.7
4,CCCCCCCCS(=O)(=O)N1CCC2(CC1)OOC1(O2)C2CC3CC(C2)CC1C3 (centres unmarked) [OZ115],6.3
5,NCC1(c2ccccc2)CCC2(CC1)OOC1(O2)C2CC3CC(C2)CC1C3 (centres unmarked) [OZ117],7.0
6,C1CC1CNC1CCC2(CC1)OOC1(O2)C2CC3CC(C2)CC1C3 (centres unmarked) [OZ184],6.7

# Same assay, conditions: single 10 mg/kg po in SSV
row,SMILES,Survival (days) 10 mg/kg SSV po [days]
1,CS(=O)(=O)C[C@H]1CC[C@]2(CC1)OO[C@]1(O2)C2CC3CC(C2)CC1C3 [OZ307],9.4

# Same assay, conditions: single 10 mg/kg sc in 3% ethanol and 7% Tween 80; untreated control 5.6 ± 0.3
row,SMILES,Survival (days) sc [days]
1,O=C1c2ccccc2C(=O)N1CC[C@H]1CC[C@]2(CC1)OOC1(O2)C2CC3CC(C2)CC1C3 (some centres unmarked) [OZ215],7.0
2,CC1(C)C2CCC1(CS(=O)(=O)N1CCC3(CC1)OOC1(O3)C3CC4CC(C3)CC1C4)C(=O)C2 (centres unmarked) [OZ91],7.3
3,CC(C)(C)NC(=O)N[C@H]1CC[C@]2(CC1)OOC1(O2)C2CC3CC(C2)CC1C3 (some centres unmarked) [OZ222],10.0
4,CCCCCCCCS(=O)(=O)N1CCC2(CC1)OOC1(O2)C2CC3CC(C2)CC1C3 (centres unmarked) [OZ115],7.3
5,NCC1(c2ccccc2)CCC2(CC1)OOC1(O2)C2CC3CC(C2)CC1C3 (centres unmarked) [OZ117],8.7
6,C1CC1CNC1CCC2(CC1)OOC1(O2)C2CC3CC(C2)CC1C3 (centres unmarked) [OZ184],8.7

# Same assay, conditions: single po dose in SSV; untreated control 5.6 ± 0.3
row,SMILES,Survival (days) SSVpo [days]
1,O=C1c2ccccc2C(=O)N1CC[C@H]1CC[C@]2(CC1)OOC1(O2)C2CC3CC(C2)CC1C3 (some centres unmarked) [OZ215],6.3
2,CC1(C)C2CCC1(CS(=O)(=O)N1CCC3(CC1)OOC1(O3)C3CC4CC(C3)CC1C4)C(=O)C2 (centres unmarked) [OZ91],6.0
3,CC(C)(C)NC(=O)N[C@H]1CC[C@]2(CC1)OOC1(O2)C2CC3CC(C2)CC1C3 (some centres unmarked) [OZ222],7.0
4,CCCCCCCCS(=O)(=O)N1CCC2(CC1)OOC1(O2)C2CC3CC(C2)CC1C3 (centres unmarked) [OZ115],5.7
5,NCC1(c2ccccc2)CCC2(CC1)OOC1(O2)C2CC3CC(C2)CC1C3 (centres unmarked) [OZ117],7.7
6,C1CC1CNC1CCC2(CC1)OOC1(O2)C2CC3CC(C2)CC1C3 (centres unmarked) [OZ184],7.0
